Measured values as given in publication PMC9753513 (ACS Omega, 2022).

Target: T1, human dihydrofolate reductase (hDHFR) (Homo sapiens, UniProt P00374)
T1 sequence (P00374 1-187): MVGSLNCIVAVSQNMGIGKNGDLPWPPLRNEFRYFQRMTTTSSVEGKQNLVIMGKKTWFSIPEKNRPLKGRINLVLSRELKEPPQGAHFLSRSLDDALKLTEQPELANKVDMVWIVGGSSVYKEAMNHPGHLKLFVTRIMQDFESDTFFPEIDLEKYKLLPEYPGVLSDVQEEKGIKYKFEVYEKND
Assay: hDHFR inhibition assay
Type: biochemical

SMILES: CN(C)c1ccc(C=NNC(=O)CSc2nc3sc4c(c3c(=O)n2-c2ccccc2)CCCCC4)cc1 [compound 23, N′-[4-(Dimethylamino)benzylidene]-2-[(4-oxo-3-phenyl-6,7,8,9-tetrahydro-3H-cyclohepta[4,5]thieno[2,3-d]pyrimidin-2-yl)thio]acetohydrazide]
- IC50: 0.28 µM
